For this experiment, the system named is patients with PH associated with PF (PH-PF). Kind of experiment: Acute escalating doses of pulsed iNO; hemodynamics by right heart catheterization (RHC) in PH-PF patients. The conditions noted are these: for Pulmonary arterial compliance (PAC), change from baseline: nine PH-PF patients on oxygen, median change. It counts as in vivo, human. The method, then: FIG. 1 depicts the study design for acute iNO dose escalation. Nine PH-PF subjects were administered escalating doses of pulsed iNO (iNO30 to iNO75 mcg/kg IBW/hrs) with continuous oxygen.
FIG. 2, comprising FIGS. 2A-2C, are graphs depicting pulmonary arterial compliance, or PAC (FIG. 2A), pulmonary vascular resistance, or PVR (FIG. 2B), and mean pulmonary arterial pressure, or mPAP (FIG. 2C) for inhaled nitric oxide at 30 mcg/kg IBW/hr (iNO30), 45 mcg/kg IBW/hr (iNO45), and 75 mcg/kg IBW/hr (iNO75). The data is based on nine pulmonary hypertension—interstitial lung disease (ILD) patients. Bar graphs represent median change from baseline at each assessment for all available subjects. […] Statistical analysis was based on the Wilcoxon Rank Test.
This study was performed to determine whether increasing doses of pulsed iNO can improve PAC in patients with PH-PF on long-term oxygen therapy with intermediate or high probability of pulmonary hypertension (PH) as determined by echocardiography. Nine patients were acutely challenged with escalating doses of iNO (iNO30, iNO45, and iNO75) over a 90 minute period. Each dose was administered for 10 minutes, with 10 minute “washout” periods between doses. Baseline measurements were taken from timepoint 0-30 minutes. iNO30 was dosed at 30 mcg/kg IBW/hrs from timepoint 30-40 minutes, iNO45 at 45 mcg/kg IBW/hrs from timepoint 50-60 minutes, and iNO75 was dosed at 75 mcg/kg IBW/hrs from timepoint 70-80 minutes (see FIG. 1). The demographics of the patient population is described in Table 1, and Baseline Hemodynamics in Table 2, below.
PAC was derived by stroke volume divided by (SPAP-DPAP) collected during right heart catheterization (RHC). Patients were on sufficient supplemental oxygen at baseline to maintain an SpO2 of at least 92% at rest. Upon completion of the RHC, subjects were offered the opportunity to continue on to chronic iNO therapy in an extension study. 6 minute walk distance (6MWD) was assessed prior to RHC treatment in the extension study.

[1] abbreviates: all subjects, doses not separated.
The mark [2] stands for this setting: iNO30 (30 mcg/kg IBW/hr, pulsed, 10 min), nine PH-PF patients, Wilcoxon Rank Test.
The mark [3] stands for this setting: iNO45 (45 mcg/kg IBW/hr, pulsed, 10 min), nine PH-PF patients, Wilcoxon Rank Test.
Setting [4] is: iNO75 (75 mcg/kg IBW/hr, pulsed, 10 min), nine PH-PF patients, Wilcoxon Rank Test.

Entries after “also recorded” stand apart in the source; their conditions may differ.

On to `[N]=O` [iNO, nitric oxide], for which the “PAC on pulsed iNO versus average baseline” value was “increase” under setting [1] and “improves PAC” (all subjects, doses not separated, listed as Inhaled NO). Also, under setting [1], the “PVR on pulsed iNO versus average baseline” value was “reduction; also recorded: statistically and clinically significant improvements”. Further, the “mPAP on pulsed iNO versus average baseline” value under setting [1] was “statistically and clinically significant improvements; also recorded: reduction”. For the same compound, the “Pulmonary arterial compliance (PAC), change from baseline” value (iNO30 (30 mcg/kg IBW/hr, pulsed, 10 min), Wilcoxon Rank Test) is on record as “improved with significance”; the “Pulmonary arterial compliance (PAC), change from baseline” value (iNO45 (45 mcg/kg IBW/hr, pulsed, 10 min), Wilcoxon Rank Test) is “improved with significance”; the “Pulmonary arterial compliance (PAC), change from baseline” value (iNO75 (75 mcg/kg IBW/hr, pulsed, 10 min), Wilcoxon Rank Test) is “improvement in PAC”. Further, the “Mean pulmonary arterial pressure (mPAP), change from baseline” value is “statistically significant improvement; also recorded: improved with significance” under setting [2], “statistically significant improvement; also recorded: improved with significance” under setting [3] and “statistically significant improvement; also recorded: improved with significance” under setting [4]. Besides, the “Pulmonary vascular resistance (PVR), change from baseline” value under setting [2] is reported as “statistically significant improvement; also recorded: improved with significance”; the “Pulmonary vascular resistance (PVR), change from baseline” value under setting [3] was “statistically significant improvement; also recorded: improved with significance”; the “Pulmonary vascular resistance (PVR), change from baseline” value under setting [4] is “statistically significant improvement; also recorded: improved with significance”. Besides, the “Pulmonary vascular resistance (PVR), further change between iNO30 and iNO45 doses” value (iNO45 versus iNO30, nine PH-PF patients, Wilcoxon Rank Test) is “additional statistically significant improvement; also recorded: further improved with significance”.

(Values after patent US20230067942A1, “IMPROVEMENT IN PULMONARY ARTERIAL […] INHALED NITRIC OXIDE (iNO) TREATMENT” (BELLEROPHON THERAPEUTICS, priority 2020, published 2023).)
